# According to patent US20230061352A1, “DRUG DELIVERY DEVICE” (priority 2020, published 2023):
# “Also recorded” adds a separate entry of the source.
# What was measured:
# [1] = Qualitative sample analysis (Q1 test) of released drug by LCMS; type: physicochemical; details: drug released from the device; chromatograms, FIGS. 7 and 8
# Experimental: Qualitative sample analysis (or Q1 test) was performed on select samples to assure single spikes were detected at frequencies consistent with calibration curves and that no secondary spikes were detected (indicating LCMS detection of single molecules without breakdown products).
# [2] = LCMS drug levels in porcine lymph tissue from the anterior jugular chain; type: in vivo, pig; details: released from implanted device; necropsy at 0, 48, 120, 240 and 336 hrs; FIGS. 12 and 13
# From the text: (§1) Devices produced in accordance with the methods of EXAMPLE 1 were implanted into tonsillectomized pigs.
# (§2) The specific LCMS method used for detection of Bupivacaine and Lidocaine has been validated in work by Hoizey et al (2005) (Hoizey G, et al. Sensitive bioassay of bupivacaine in human plasma by liquid-chromatography-ion trap mass spectrometry. Journal of pharmaceutical and biomedical analysis. 2005; 39:587-92).
# (§3) The specific LCMS method used for detection of Bupivacaine and Lidocaine has been validated in work by Hoizey et al (2005).
# [3] = LCMS drug levels in porcine serum from the internal jugular vein; type: in vivo, pig; details: released from implanted device; 0, 1, 2, 4, 24, 48, 72, 120, 240, 336 hrs; FIGS. 14 and 15
# From the text: as §1, §2, §3
drug level detected in serum (systemic uptake) [3],SMILES,integrity of the released drug molecule (no breakdown products) [1],drug level detected in locoregional (lymph) tissue [2]
< 4 microgram per ml,CCCCN1CCCCC1C(=O)Nc1c(C)cccc1C (centres unmarked) [bupivacaine],"active form is preserved; also recorded: complete, intact bupivacaine molecule",< 4 microgram per ml
,CCN(CC)CC(=O)Nc1c(C)cccc1C [lignocaine],"active form is preserved; also recorded: complete, intact lignocaine molecule",< 5.6 microgram per ml
